The compounds below were run on human monocytic cell line U937 (assay: Human U937 cellular necroptosis assay (TNFalpha + z-VAD-FMK, Cell Titer-Glo viability)). Settings: Homo sapiens, U-937, 22 h, U937 cells, 25 ng/mL human TNFalpha + 25 μM z-VAD-FMK, read-out: hU937 Avg IC50.
Format: cell-based
Protocol: The human monocytic cell line U937 (CRL-1593.2) was purchased from ATCC. The cells were routinely maintained in RPMI-1640 Medium (Gibco, Catalog #11875-093) supplemented with 10% heat inactivated fetal bovine serum (Gibco, Catalog #16140-071), 100 units/mL penicillin and 100 μg/mL streptomycin (Gibco, Catalog #15140-122), in a humidified incubator (37° C., 5% CO2). For the assay, cells were resuspended in RPMI-1640 phenol red free Media (Gibco, Catalog #11835-030) supplemented with 10% fetal bovine serum (Sigma, Catalog #F2442), 100 units/mL penicillin and 100 ug/mL streptomycin. Cells were stimulated with 25 ng/mL human TNFalpha (Cell Sciences, Catalog #CSI15659B) and 25 μM z-VAD-FMK (R&D Systems, Catalog #FMK001) followed by seeding 5000 cells per well in a volume of 40 μL to a white, CulturPlate-384 (Perkin Elmer, Catalog #6007680). Stock solutions of the test compounds were prepared in 100% DMSO (Sigma, Catalog #D2650) and serially diluted 1:3 using 100% DMSO. Compounds were additionally diluted 1:40 in assay medium, and 10 μL/well was transferred to the plate. Following the compound addition the plate was incubated at 37° C. and 5% CO2 for 22 h. After 22 h, viability was assessed with the addition of 20 μL of Cell Titer-Glo 2.0 (Promega, Catalog #G9243). The tissue culture plate was shaken on an orbital shaker at 300 RPM for 15 minutes at rt in the dark. Luminescence was measured using a PerkinElmer Envision™ plate reader. IC50 values were calculated using a four-parameter logistic curve fit using Genedata Screener software. Results are shown below in Table 3, where the average value across multiple runs is given.

Point of comparison: `N#Cc1ccc2c(cnn2CC23CC(C(=O)N4C[C@H](O)C[C@H]4c4cccc(F)c4)(C2)C3)c1` (single isomer, unassigned) [Example 263], IC50 9500 nM. Against it:
- N#Cc1ccc2c(cnn2CC23CC(C(=O)N4C[C@@H](O)C[C@H]4c4cccc(F)c4)(C2)C3)c1 (single isomer, unassigned) [Example 262] — 2-fold lower, 4670 nM
- N#Cc1ccc2nn(CC34CC(C(=O)N5N=CCC5c5cncc(F)c5)(C3)C4)cc2c1 (stereo not drawn) [Example 127, 2-((3-(5-(5-fluoropyridin-3-yl)-4,5-dihydro-1H-pyrazole-1-carbonyl)bicyclo[1.1.1]-pentan-1-yl)methyl)-2H-indazole-5-carbonitrile] — 7.5-fold lower, 1260 nM
- Cc1ccc2c(cnn2CC23CC(C(=O)N4N=CCC4c4cc(F)cc(F)c4)(C2)C3)n1 (stereo not drawn) [Example 165, (5-(3,5-difluorophenyl)-4,5-dihydro-1H-pyrazol-1-yl)(3-((5-methyl-1H-pyrazolo[4,3-b]pyridin-1-yl)methyl)-bicyclo[1.1.1]pentan-1-yl)methanone] — 49-fold lower, 193 nM
- Cc1cc(F)c(C2CC=NN2C(=O)C23CC(COc4cnc(C#N)cn4)(C2)C3)cc1F (stereo not drawn) [Example 195, 5-((3-(5-(2,5-Difluoro-4-methylphenyl)-4,5-dihydro-1H-pyrazole-1-carbonyl)bicyclo[1.1.1]pentan-1-yl)methoxy) pyrazine-2-carbonitrile] — 6300-fold lower, 1.5 nM
- Cc1ccc(C2CC=NN2C(=O)C23CC(COc4cnc(C#N)cn4)(C2)C3)cc1 (stereo not drawn) [Example 198, 5-((3-(5-(p-Tolyl)-4,5-dihydro-1H-pyrazole-1-carbonyl)bicyclo[1.1.1]pentan-1-yl)methoxy)pyrazine-2-carbonitrile] — 1300-fold lower, 7.4 nM
- Cc1c(F)cc(C2CC=NN2C(=O)C23CC(Cn4ncc5cc(C#N)ccc54)(C2)C3)cc1F (stereo not drawn) [Example 203, 1-((3-(5-(3,5-Difluoro-4-methylphenyl)-4,5-dihydro-1H-pyrazole-1-carbonyl)bicyclo[1.1.1]pentan-1-yl)methyl)-1H-indazole-5-carbonitrile] — 1700-fold lower, 5.5 nM
- Cn1cc(-c2ccc(OCC34CC(C(=O)N5N=CCC5c5cc(F)cc(F)c5)(C3)C4)c(F)c2)cn1 (stereo not drawn) [Example 204, (5-(3,5-Difluorophenyl)-4,5-dihydro-1H-pyrazol-1-yl)(3-((2-fluoro-4-(1-methyl-1H-pyrazol-4-yl)phenoxy)methyl)bicyclo[1.1.1]pentan-1-yl)methanone] — 430-fold lower, 22 nM
- N#Cc1cnc(NCC23CC(C(=O)N4N=CCC4c4cc(F)cc(F)c4)(C2)C3)cn1 (stereo not drawn) [Example 205, 5-(((3-(5-(3,5-Difluorophenyl)-4,5-dihydro-1H-pyrazole-1-carbonyl)bicyclo[1.1.1]pentan-1-yl)methyl)amino)pyrazine-2-carbonitrile] — 22-fold lower, 436 nM
- CN(CC12CC(C(=O)N3N=CCC3c3cc(F)cc(F)c3)(C1)C2)c1cnc(C#N)cn1 (stereo not drawn) [Example 206, 5-(((3-(5-(3,5-Difluorophenyl)-4,5-dihydro-1H-pyrazole-1-carbonyl)bicyclo[1.1.1]pentan-1-yl)methyl)(methyl)amino)pyrazine-2-carbonitrile] — 87-fold lower, 109 nM
- N#Cc1cnc(OCC23CC(C(=O)N4N=CCC4c4ccc(F)c(CO)c4)(C2)C3)cn1 (stereo not drawn) [Example 207, 5-((3-(5-(4-Fluoro-3-(hydroxymethyl)phenyl)-4,5-dihydro-1H-pyrazole-1-carbonyl)bicyclo[1.1.1]pentan-1-yl)methoxy)pyrazine-2-carbonitrile] — 15-fold lower, 633 nM
- N#Cc1cnc(OCC23CC(C(=O)N4[C@@H]5C[C@@H]5C[C@H]4c4cc(F)cc(F)c4)(C2)C3)cn1 [Example 209, 5-((3-((1R,3S,5R)-3-(3,5-difluorophenyl)-2-azabicyclo[3.1.0]hexane-2-carbonyl)bicyclo[1.1.1]pentan-1-yl)methoxy)pyrazine-2-carbonitrile] — 26-fold lower, 362 nM
- N#Cc1cnc2c(ccn2CC23CC(C(=O)N4N=CCC4c4cc(F)cc(F)c4)(C2)C3)n1 (stereo not drawn) [Example 211, 5-((3-(5-(3,5-difluorophenyl)-4,5-dihydro-1H-pyrazole-1-carbonyl)bicyclo[1.1.1]pentan-1-yl)methyl)-5H-pyrrolo[2,3-b]pyrazine-2-carbonitrile] — 590-fold lower, 16 nM
- N#Cc1cc2cnn(CC34CC(C(=O)N5N=CCC5c5cc(F)cc(F)c5)(C3)C4)c2cc1Cl (stereo not drawn) [Example 214, 6-chloro-1-((3-(5-(3,5-difluorophenyl)-4,5-dihydro-1H-pyrazole-1-carbonyl)-bicyclo[1.1.1]pentan-1-yl)-methyl)-1H-indazole-5-carbonitrile] — 130-fold lower, 71 nM
- COc1ccc2c(cnn2CC23CC(C(=O)N4N=CCC4c4cc(F)cc(F)c4)(C2)C3)n1 (stereo not drawn) [Example 215, (5-(3,5-difluorophenyl)-4,5-dihydro-1H-pyrazol-1-yl)(3-((5-methoxy-1H-pyrazolo[4,3-b]pyridin-1-yl)methyl)bicyclo-[1.1.1]pentan-1-yl)methanone] — 120-fold lower, 80 nM
- Cc1cc2n(CC34CC(C(=O)N5N=CCC5c5cc(F)cc(F)c5)(C3)C4)ccn2n1 (stereo not drawn) [Example 216, (5-(3,5-difluorophenyl)-4,5-dihydro-1H-pyrazol-1-yl)(3-((6-methyl-1H-imidazo[1,2-b]pyrazol-1-yl)methyl)bicyclo-[1.1.1]pentan-1-yl)methanone] — 100-fold lower, 92 nM
- N#Cc1nc(C2CC2)nn1CC12CC(C(=O)N3N=CCC3c3cc(F)cc(F)c3)(C1)C2 (stereo not drawn) [Example 217, 3-cyclopropyl-1-((3-(5-(3,5-difluorophenyl)-4,5-dihydro-1H-pyrazole-1-carbonyl)-bicyclo[1.1.1]pentan-1-yl)-methyl)-1H-1,2,4-triazole-5-carbonitrile] — 96-fold lower, 99 nM
- N#Cc1cc2cn(CC34CC(C(=O)N5N=CCC5c5cc(F)cc(F)c5)(C3)C4)nc2cc1Cl (stereo not drawn) [Example 220, 6-chloro-2-((3-(5-(3,5-difluorophenyl)-4,5-dihydro-1H-pyrazole-1-carbonyl)-bicyclo[1.1.1]pentan-1-yl)-methyl)-2H-indazole-5-carbonitrile] — 30-fold lower, 312 nM
- N#Cc1nc(C2CC2)n(CC23CC(C(=O)N4N=CCC4c4cc(F)cc(F)c4)(C2)C3)n1 (stereo not drawn) [Example 221, 5-cyclopropyl-1-((3-(5-(3,5-difluorophenyl)-4,5-dihydro-1H-pyrazole-1-carbonyl)-bicyclo[1.1.1]pentan-1-yl)-methyl)-1H-1,2,4-triazole-3-carbonitrile] — 9.6-fold lower, 992 nM
- Cc1nc(CC#N)nn1CC12CC(C(=O)N3N=CCC3c3cc(F)cc(F)c3)(C1)C2 (stereo not drawn) [Example 223, 2-(1-((3-(5-(3,5-difluoro-phenyl)-4,5-dihydro-1H-pyrazole-1-carbonyl)bicyclo-[1.1.1]pentan-1-yl)methyl)-5-methyl-1H-1,2,4-triazol-3-yl)acetonitrile] — within 1.5-fold, 9740 nM
- N#Cc1ccc(OCC23CC(C(=O)N4N=CCC4c4cc(F)cc(F)c4)(C2)C3)cn1 (stereo not drawn) [Example 224, 5-((3-(5-(3,5-difluorophenyl)-4,5-dihydro-1H-pyrazole-1-carbonyl)bicyclo[1.1.1]pentan-1-yl)methoxy)picolinonitrile] — 190-fold lower, 51 nM
- Cc1cc(C#N)cnc1OCC12CC(C(=O)N3N=CCC3c3cc(F)cc(F)c3)(C1)C2 (stereo not drawn) [Example 225, 6-((3-(5-(3,5-difluorophenyl)-4,5-dihydro-1H-pyrazole-1-carbonyl)bicyclo[1.1.1]pentan-1-yl)methoxy)-5-methyl-nicotinonitrile] — 100-fold lower, 92 nM
- O=C(N1N=CCC1c1cc(F)cc(F)c1)C12CC(C(F)c3cc(F)cc(Cl)c3)(C1)C2 (stereo not drawn) [Example 227, (3-((3-chloro-5-fluorophenyl-)fluoromethyl)bicyclo[1.1.1]-pentan-1-yl)(5-(3,5-difluoro-phenyl)-4,5-dihydro-1H-pyrazol-1-yl)methanone] — 71-fold lower, 133 nM
- COc1cc(C(F)C23CC(C(=O)N4N=CCC4c4cc(F)cc(F)c4)(C2)C3)ncn1 (stereo not drawn) [Example 229, (5-(3,5-difluorophenyl)-4,5-dihydro-1H-pyrazol-1-yl)(3-(fluoro(6-methoxypyrimidin-4-yl)methyl)bicyclo[1.1.1]-pentan-1-yl)methanone] — 1.9-fold lower, 5060 nM
- COc1ccc(C(O)C23CC(C(=O)N4N=CCC4c4cc(F)cc(F)c4)(C2)C3)cc1 (stereo not drawn) [Example 231, (5-(3,5-difluorophenyl)-4,5-dihydro-1H-pyrazol-1-yl)(3-(hydroxy(4-methoxyphenyl)-methyl)bicyclo[1.1.1]pentan-1-yl)methanone] — 3.1-fold lower, 3040 nM
- COc1cc(C(O)C23CC(C(=O)N4N=CCC4c4cc(F)cc(F)c4)(C2)C3)ncn1 (stereo not drawn) [Example 232, (5-(3,5-difluorophenyl)-4,5-dihydro-1H-pyrazol-1-yl)(3-(hydroxy(6-methoxy-pyrimidin-4-yl)methyl)-bicyclo[1.1.1]pentan-1-yl)-methanone] — within 1.5-fold, 8110 nM

Same assay, conditions: U937 cells, 25 ng/mL human TNFalpha + 25 μM z-VAD-FMK, 22 h; read-out: hU937 Avg IC50

Compound `O=C(N1N=CCC1c1cc(F)cc(F)c1)C12CC(Cn3ncc4ncccc43)(C1)C2` (stereo not drawn) [Example 148, (3-((1H-pyrazolo[4,3-b]-pyridin-1-yl)methyl)bicyclo-[1.1.1]pentan-1-yl)(5-(3,5-difluorophenyl)-4,5-dihydro-1H-pyrazol-1-yl)methanone] has an IC50 of 912 nM.
